For 36 compounds, IC50 results are on record in patent US11685732B2, “MYST family histone acetyltransferase inhibitors” (Epizyme, Inc., priority 2017, dated 2023).

As usually defined, the IC50 is the concentration that gives 50% inhibition. Lower therefore signals greater potency.

Where two headings read alike, the source gives them in different places. A value given as a limit tells only on which side of the number the result lay.

For one assay, the target named is KAT-6A (Homo sapiens (Human), UniProt Q92794). Description: KAT-6A biochemical inhibition assay (SAMDI mass spectrometry). As to the method: (§1) KAT-6A. Enzyme assay buffer was 50 mM Tris pH 8.0, 0.002% Tween20, 0.005% bovine skin gelatin, and 1 mM dithiothreitol (DTT). For determination of IC50 values, compounds were serially diluted with 2% (v/v) DMSO in the final reaction, pre-incubating each dilution of each compound with 40 μL of assay buffer containing KAT-6A enzyme (12.5 nM final concentration). 10 μL of assay buffer containing 1 μM peptide substrate and 1 μM acetyl coenzyme A (final concentrations) was added. Reactions (50 μL total) were then carried out at 25° C. for 90 minutes. Reactions were terminated by the addition of 0.5% formic acid (final concentration), and a sample of each reaction was analyzed by SAMDI Tech, Inc. (Chicago, Ill.) using self-assembled monolayer desorption/ionization time-of-flight mass spectrometry (Mrksich, M. (2008) Mass spectrometry of self-assembled monolayers: a new tool for molecular surface science. ACS Nano 2, 7-18).
KAT-6A, sequence (Q92794 other isoform, or with tags, fused parts or gaps): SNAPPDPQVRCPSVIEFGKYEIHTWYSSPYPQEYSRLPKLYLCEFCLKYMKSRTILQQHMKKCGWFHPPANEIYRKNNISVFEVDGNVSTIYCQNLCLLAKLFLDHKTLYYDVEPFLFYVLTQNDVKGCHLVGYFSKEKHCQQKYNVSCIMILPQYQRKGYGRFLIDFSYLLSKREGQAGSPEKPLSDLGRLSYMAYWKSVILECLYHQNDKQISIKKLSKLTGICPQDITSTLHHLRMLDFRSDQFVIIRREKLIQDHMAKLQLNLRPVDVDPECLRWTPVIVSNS

Another assay addresses KAT-7 (Homo sapiens (Human), UniProt O95251). The assay can be described thus: KAT-7 biochemical inhibition assay (SAMDI mass spectrometry). The protocol: as §1, with “KAT-7. Enzyme assay” for “KAT-6A. Enzyme assay”, “buffer containing KAT-7 enzyme (6” for “buffer containing KAT-6A enzyme (12.5”, “KAT-7 enzyme (6 nM final” for “KAT-6A enzyme (12.5 nM final”, “substrate and 2 μM acetyl” for “substrate and 1 μM acetyl”, “C. for 120 minutes. Reactions” for “C. for 90 minutes. Reactions”

Another assay concerns the target KAT-5 (Homo sapiens (Human), UniProt Q92993). Description: KAT-5 biochemical inhibition assay (SAMDI mass spectrometry). As to the method: as §1, with “KAT-5. Enzyme assay” for “KAT-6A. Enzyme assay”, “buffer containing KAT-5 enzyme (9” for “buffer containing KAT-6A enzyme (12.5”, “KAT-5 enzyme (9 nM final” for “KAT-6A enzyme (12.5 nM final”, “substrate and 0.5 μM acetyl” for “substrate and 1 μM acetyl”

KAT-7, sequence (O95251 other isoform, or with tags, fused parts or gaps): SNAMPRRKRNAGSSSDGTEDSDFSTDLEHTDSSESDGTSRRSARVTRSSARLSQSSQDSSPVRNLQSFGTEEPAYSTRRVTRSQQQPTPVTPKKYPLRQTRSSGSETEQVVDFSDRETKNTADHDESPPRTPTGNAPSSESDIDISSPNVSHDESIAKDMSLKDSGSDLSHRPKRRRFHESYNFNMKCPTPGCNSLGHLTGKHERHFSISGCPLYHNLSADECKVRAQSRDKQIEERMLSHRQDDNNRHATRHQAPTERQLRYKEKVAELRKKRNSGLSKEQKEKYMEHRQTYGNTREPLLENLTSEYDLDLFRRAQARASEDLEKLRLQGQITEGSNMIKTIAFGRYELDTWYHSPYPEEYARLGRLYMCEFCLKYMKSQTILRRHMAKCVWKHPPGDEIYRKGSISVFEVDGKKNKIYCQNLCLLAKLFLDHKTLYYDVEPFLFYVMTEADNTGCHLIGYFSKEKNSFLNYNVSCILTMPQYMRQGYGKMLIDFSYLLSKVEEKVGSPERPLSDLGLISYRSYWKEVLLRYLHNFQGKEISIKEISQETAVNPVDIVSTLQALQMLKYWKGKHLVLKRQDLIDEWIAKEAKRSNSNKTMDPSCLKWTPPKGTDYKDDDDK
KAT-5, sequence (Q92993 other isoform, or with tags, fused parts or gaps): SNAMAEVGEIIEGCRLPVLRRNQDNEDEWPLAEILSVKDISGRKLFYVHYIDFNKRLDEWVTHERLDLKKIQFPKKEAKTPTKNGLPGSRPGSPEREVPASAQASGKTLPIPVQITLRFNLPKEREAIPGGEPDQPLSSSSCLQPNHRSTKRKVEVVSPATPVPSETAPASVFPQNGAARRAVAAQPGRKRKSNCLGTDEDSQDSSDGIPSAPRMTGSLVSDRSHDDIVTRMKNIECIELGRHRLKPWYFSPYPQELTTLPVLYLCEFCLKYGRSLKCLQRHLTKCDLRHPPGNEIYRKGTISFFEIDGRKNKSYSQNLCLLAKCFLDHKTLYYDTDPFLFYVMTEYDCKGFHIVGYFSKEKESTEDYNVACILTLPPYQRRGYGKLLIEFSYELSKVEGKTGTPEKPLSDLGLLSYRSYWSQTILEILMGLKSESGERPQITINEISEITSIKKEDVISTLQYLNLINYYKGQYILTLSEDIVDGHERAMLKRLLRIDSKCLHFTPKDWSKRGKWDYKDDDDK

Consider `Cc1cccc(-c2cc(Cl)c(F)c(C(=O)NNS(=O)(=O)CC3CN(C(=O)OC(C)(C)C)C3)c2)c1` [Compound A-12], for which the IC50 is 10 to 50 µM at KAT-6A (Table 5), not above 10 µM at KAT-7 (Table 5) and 10 to 50 µM at KAT-5 (Table 5).
As for `Cc1cccc(-c2cc(Cl)c(F)c(C(=O)NNS(=O)(=O)CC3CNC3)c2)c1` [Compound A-13], the IC50 on KAT-6A (Table 5) was more than 100 µM; at KAT-7 (Table 5), 10 to 50 µM; on KAT-5 (Table 5), more than 100 µM.
On to `Cc1cccc(-c2cc(Cl)c(F)c(C(=O)NNS(=O)(=O)CC3CN(C(=O)OC(C)(C)C)CCN3C(=O)OC(C)(C)C)c2)c1` (stereo not drawn) [Compound A-14], for which the values for the IC50 on KAT-6A (Table 5), on KAT-7 (Table 5) and against KAT-5 (Table 5) were more than 100 µM, 10 to 50 µM and more than 100 µM, respectively.
For `Cc1cccc(-c2cc(Cl)c(F)c(C(=O)NNS(=O)(=O)CC3CNCCN3)c2)c1` (stereo not drawn) [Compound A-15], the results for the IC50 at KAT-6A (Table 5), against KAT-7 (Table 5) and on KAT-5 (Table 5) were more than 100 µM, not above 10 µM and more than 100 µM, respectively.
For the compound `COc1cccc(S(=O)(=O)NNC(=O)c2cc(-c3ccccc3)cc(Cl)c2F)c1` [Compound A-16], the concentration for half-maximal inhibition (IC50) against KAT-6A (Table 5) is not above 1 µM; against KAT-7 (Table 5) it was not above 1 µM; against KAT-5 (Table 5) it was not above 10 µM.
For the compound `Cc1cccc(-c2cc(Cl)c(F)c(C(=O)NNS(=O)(=O)CC3CN(C)CCN3C)c2)c1` (stereo not drawn) [Compound A-17], the IC50 against KAT-6A (Table 5) is 10 to 50 µM; against KAT-7 (Table 5) it was not above 10 µM; against KAT-5 (Table 5), more than 100 µM.
For `Cc1cccc(-c2cc(Cl)c(F)c(C(=O)NNS(=O)(=O)C3CCC(NC(=O)OC(C)(C)C)C3)c2)c1` (stereo not drawn) [Compound A-19] the same measures were 50 to 100 µM, not above 10 µM and 10 to 50 µM.
For `Cc1cccc(-c2cc(Cl)c(F)c(C(=O)NNS(=O)(=O)C3CCC(N)C3)c2)c1` (stereo not drawn) [Compound A-20] the same measures were more than 100 µM, 10 to 50 µM and more than 100 µM.
Turning to `Cc1cccc(-c2cc(Cl)c(F)c(C(=O)NNS(=O)(=O)CC3CCCCNC3)c2)c1` (stereo not drawn) [Compound A-21], the IC50 against KAT-6A (Table 5) was more than 100 µM; against KAT-7 (Table 5), not above 10 µM; against KAT-5 (Table 5) it was more than 100 µM.
Consider `Cc1cccc(-c2cc(Cl)c(F)c(C(=O)NNS(=O)(=O)CC3CCCCN(C(=O)OC(C)(C)C)C3)c2)c1` (stereo not drawn) [Compound A-22], for which the IC50 against KAT-6A (Table 5) was 10 to 50 µM; against KAT-7 (Table 5) it was not above 1 µM; against KAT-5 (Table 5), 10 to 50 µM.
In the case of `Cc1cccc(-c2cc(Cl)c(F)c(C(=O)NNS(=O)(=O)C(C)C3CCCN(C(=O)OC(C)(C)C)C3)c2)c1` (stereo not drawn) [Compound A-23], the IC50 at KAT-6A (Table 5) is more than 100 µM; on KAT-7 (Table 5), not above 1 µM; on KAT-5 (Table 5), more than 100 µM.
For the compound `Cc1cccc(-c2cc(Cl)c(F)c(C(=O)NNS(=O)(=O)CC3CN(C)CCN3)c2)c1` (stereo not drawn) [Compound A-24], the results for the IC50 against KAT-6A (Table 5), at KAT-7 (Table 5) and against KAT-5 (Table 5) were 10 to 50 µM, not above 10 µM and 50 to 100 µM, respectively.
As for `Cc1cccc(-c2cc(Cl)c(F)c(C(=O)NNS(=O)(=O)C(C)C3CCCNC3)c2)c1` (stereo not drawn) [Compound A-25], the IC50 is more than 100 µM on KAT-6A (Table 5), 10 to 50 µM against KAT-7 (Table 5) and more than 100 µM on KAT-5 (Table 5).
With `CNCCCS(=O)(=O)NNC(=O)c1cc(-c2cccc(C)c2)ccc1F` [Compound A-26], the IC50 against KAT-6A (Table 5), against KAT-7 (Table 5) and against KAT-5 (Table 5) was more than 100 µM each time.
Consider `CNCCCS(=O)(=O)NNC(=O)c1cc(-c2cccc(C)c2)cc(Cl)c1F` [Compound A-27], for which the IC50 against KAT-6A (Table 5), against KAT-7 (Table 5) and at KAT-5 (Table 5) was more than 100 µM throughout.
For the compound `Cc1cc(-c2cccc(F)c2)cc(C(=O)NNS(=O)(=O)c2cccc(O)c2)c1F` [Compound A-28], the IC50 against KAT-6A (Table 5), against KAT-7 (Table 5) and at KAT-5 (Table 5) was not above 1 µM each time.
As for `O=C(NNS(=O)(=O)c1cccc(O)c1)c1cc(-c2ccccc2)cc(F)c1F` [Compound A-29], the values for the IC50 at KAT-6A (Table 5), on KAT-7 (Table 5) and at KAT-5 (Table 5) were not above 1 µM, not above 1 µM and not above 10 µM, respectively.
On to `O=C(NNS(=O)(=O)c1cccc(O)c1)c1cc(-c2ccccc2)cc(Cl)c1F` [Compound A-31], for which the IC50 on KAT-6A (Table 5), against KAT-7 (Table 5) and on KAT-5 (Table 5) was not above 1 µM each time.
As for `Cc1cccc(-c2cc(Cl)c(F)c(C(=O)NNS(=O)(=O)CC3CNCCN3C)c2)c1` (stereo not drawn) [Compound A-32], the IC50 on KAT-6A (Table 5) was more than 100 µM; on KAT-7 (Table 5) it was 10 to 50 µM; against KAT-5 (Table 5), more than 100 µM.
Regarding `Cn1cnc(-c2cc(Cl)c(F)c(C(=O)NNS(=O)(=O)CC3CCC(OCCO)CC3)c2)c1` (stereo not drawn) [Compound I-467], the IC50 at KAT-6A, against KAT-7 and against KAT-5 was less than 10 µM each time.
Regarding `COc1cnc(S(=O)(=O)NNC(=O)c2cc(-c3cn(C)cn3)cc(Cl)c2F)c(F)c1` [Compound I-468], the IC50 against KAT-6A and on KAT-5 was less than 10 µM throughout.
Turning to `Cn1cnc(-c2cc(Cl)c(F)c(C(=O)NNS(=O)(=O)CC3CN(C(=O)OC(C)(C)C)CCN3C(=O)OC(C)(C)C)c2)c1` (stereo not drawn) [Compound I-469], the IC50 at KAT-6A and against KAT-5 was more than 100 µM each time.
`CC(=O)NCc1c(-c2cn(C)cn2)cc(C(=O)NNS(=O)(=O)CC2CCCCC2)c(F)c1Cl` [Compound I-470]: the IC50 at KAT-6A was 10 to 50 µM; against KAT-5, more than 100 µM.
In the case of `Cn1cnc(-c2cc(Cl)c(F)c(C(=O)NNS(=O)(=O)C[C@H]3CC[C@H](N(C)CC(F)(F)F)CC3)c2)c1` [Compound I-471], the IC50 against KAT-6A, against KAT-7 and against KAT-5 was less than 10 µM throughout.
On to `Cn1cnc(-c2cc(Cl)c(F)c(C(=O)NNS(=O)(=O)CC3CNCCN3)c2)c1` (stereo not drawn) [Compound I-472], for which the IC50 against KAT-6A and at KAT-5 was more than 100 µM in each case.
Turning to `CN(CC(F)(F)F)C1CCCC(CS(=O)(=O)NNC(=O)c2cc(-c3cn(C)cn3)cc(Cl)c2F)C1` (stereo not drawn) [Compound I-473], the IC50 on KAT-6A was 10 to 50 µM; on KAT-7, less than 10 µM; against KAT-5, less than 10 µM.
As for `Cn1cnc(-c2cc(Cl)c(F)c(C(=O)NNS(=O)(=O)Cc3nn(C)cc3Cl)c2)c1` [Compound I-474], the IC50 against KAT-6A, against KAT-7 and against KAT-5 was less than 10 µM each time.
Regarding `Cn1cnc(-c2cc(C(=O)NNS(=O)(=O)CC3CCCCC3)c(F)c(Cl)c2N(C(=O)OC(C)(C)C)C(=O)OC(C)(C)C)c1` [Compound I-475], the IC50 was more than 100 µM against KAT-6A, 50 to 100 µM against KAT-7 and more than 100 µM at KAT-5.
Regarding `Cn1cnc(-c2cc(C(=O)NNS(=O)(=O)CC3CCCCC3)c(F)c(Cl)c2N)c1` [Compound I-476], the IC50 at KAT-6A, at KAT-7 and on KAT-5 was less than 10 µM in each case.
For the compound `Cn1cnc(-c2cc(Cl)c(F)c(C(=O)NNS(=O)(=O)Cc3c(Cl)cnn3C)c2)c1` [Compound I-477], the values for the IC50 against KAT-6A and on KAT-5 were 10 to 50 µM and less than 10 µM, respectively.
`CCc1cccc(S(=O)(=O)NNC(=O)c2cc(-c3ccccn3)cc(Cl)c2F)c1` [Compound I-478]: the IC50 at KAT-6A, on KAT-7 and against KAT-5 was less than 10 µM each time.
Consider `Cn1cnc(-c2cc(Cl)c(F)c(C(=O)NNS(=O)(=O)Cc3ccn(C)n3)c2)c1` [Compound I-479], for which the IC50 at KAT-6A, at KAT-7 and at KAT-5 was less than 10 µM in each case.
`Cn1cnc(-c2cc(Cl)c(F)c(C(=O)NNS(=O)(=O)Cc3ccnn3C)c2)c1` [Compound I-480]: the IC50 on KAT-6A is 10 to 50 µM; against KAT-7, less than 10 µM; at KAT-5 it was 10 to 50 µM.
Take `O=C(NNS(=O)(=O)c1cccc(O)c1)c1cc(-c2ccccn2)cc(Cl)c1F` [Compound I-481]: the IC50 at KAT-6A, on KAT-7 and against KAT-5 was less than 10 µM in each case.
In the case of `Cn1cnc(-c2cc(Cl)c(F)c(C(=O)NNS(=O)(=O)Cc3ccnn3C)c2)c1` [Compound I-482], the IC50 against KAT-6A and against KAT-5 was 10 to 50 µM in each case.
Consider `CCc1cc(O)cc(S(=O)(=O)NNC(=O)c2cc(-c3ccccn3)cc(Cl)c2F)c1` [Compound I-483], for which the IC50 at KAT-6A, on KAT-7 and at KAT-5 was less than 10 µM throughout.
